Data: patent US8716475B2, “2-aminopyrimidine modulators of the histamine H4 receptor” (Janssen Pharmaceutica NV, priority 2007, dated 2014)
pKi: −log10 of the molar value.

molecular target: T1, human H4 receptor (Homo sapiens, UniProt Q9H3N8); assay: Binding Assay on Recombinant Human Histamine H4 Receptor; details: Table 1; [3H] histamine competition binding, membranes of SK-N-MC cells transfected with human H4 receptor; average of results
T1 construct: expressed in transfected cells
In short: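 Radioligand binding used membranes from SK-N-MC cells stably or transiently expressing human H4, prepared in 50 mM Tris/5 mM EDTA. Nonspecific binding was defined with 100 μM histamine. Bound radioactivity was counted after filtration on PEI-treated GF/C filters, and ">" values are the highest concentration tested.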

T1 sequence (Q9H3N8 whole entry): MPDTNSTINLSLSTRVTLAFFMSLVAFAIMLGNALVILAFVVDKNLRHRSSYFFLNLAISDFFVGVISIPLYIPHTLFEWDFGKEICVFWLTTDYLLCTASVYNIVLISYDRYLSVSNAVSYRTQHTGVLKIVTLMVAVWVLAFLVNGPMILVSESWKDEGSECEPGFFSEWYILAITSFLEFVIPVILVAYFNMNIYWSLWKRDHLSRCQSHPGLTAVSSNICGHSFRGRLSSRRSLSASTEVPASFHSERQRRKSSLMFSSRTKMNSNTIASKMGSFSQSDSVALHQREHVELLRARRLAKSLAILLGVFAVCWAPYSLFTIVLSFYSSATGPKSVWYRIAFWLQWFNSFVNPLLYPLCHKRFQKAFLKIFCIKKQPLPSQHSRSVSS

Compound | pKi
CN1CCN(c2cc(C3CCCC3)nc(N)n2)CC1 [Example 2, 4-Cyclopentyl-6-(4-methyl-piperazin-1-yl)-pyrimidin-2-ylamine] | 9.00
CN1CCN(c2nc(N)nc3c2CCCC3)CC1 [Example 66, 4-(4-Methyl-piperazin-1-yl)-5,6,7,8-tetrahydro-quinazolin-2-ylamine] | 8.40
CN[C@@H]1CCN(c2nc(N)nc3c2CCCC3)C1 [Example 69, (R)-4-(3-Methylamino-pyrrolidin-1-yl)-5,6,7,8-tetrahydro-quinazolin-2-ylamine] | 7.37
Cc1cc(N2CC3CCCNC3C2)nc(N)n1 (stereo not drawn) [Example 24, 4-Methyl-6-(cis-octahydro-pyrrolo[3,4-b]pyridin-6-yl)-pyrimidin-2-ylamine] | 7.31

same assay, conditions: Table 2; [3H] histamine competition binding, membranes of SK-N-MC cells transfected with human H4 receptor; average of results

Compound | pKi
Nc1nc(CCc2ccccc2)cc(N2CC(N)C2)n1 [Example 248, 4-(3-Amino-azetidin-1-yl)-6-phenethyl-pyrimidin-2-ylamine] | 8.05
Nc1nc(C2Cc3ccccc3O2)cc(N2CCNCC2)n1 (stereo not drawn) [Example 171, 4-(2,3-Dihydro-benzofuran-2-yl)-6-piperazin-1-yl-pyrimidin-2-ylamine] | 6.97
CC1(c2cc(N3C[C@H]4CNC[C@H]4C3)nc(N)n2)CCOCC1 [Example 170, 4-(cis-Hexahydro-pyrrolo[3,4-c]pyrrol-2-yl)-6-(4-methyl-tetrahydro-pyran-4-yl)-pyrimidin-2-ylamine] | 5.23
Nc1nc(CCC(F)(F)F)cc(N2CC[C@@H](N)C2)n1 [Example 184, (R)-4-(3-Amino-pyrrolidin-1-yl)-6-(3,3,3-trifluoro-propyl)-pyrimidin-2-ylamine] | 7.89
CCCCc1cc(N2CC[C@@H](NC)C2)nc(N)n1 [Example 137, (R)-4-Butyl-6-(3-methylamino-pyrrolidin-1-yl)-pyrimidin-2-ylamine] | 8.70
CCOCc1cc(N2CC[C@@H](NC)C2)nc(N)n1 [Example 241, (R)-Ethoxymethyl-6-(3-methylamino-pyrrolidin-1-yl)-pyrimidin-2-ylamine] | 7.51
COCc1cc(N2CCNCC2)nc(N)n1 [Example 224, 4-Methoxymethyl-6-piperazin-1-yl-pyrimidin-2-ylamine] | 7.59
Nc1nc2c(c(N3C[C@H]4CCCN[C@H]4C3)n1)COCC2 [Example 97, (R,R)-4-(Octahydro-pyrrolo[3,4-b]pyridin-6-yl)-7,8-dihydro-5H-pyrano[4,3-d]pyrimidin-2-ylamine] | 7.70
CN[C@@H]1CCN(c2cc(Cc3cccs3)nc(N)n2)C1 [Example 214, (R)-4-(3-Methylamino-pyrrolidin-1-yl)-6-thiophen-2-ylmethyl-pyrimidin-2-ylamine] | 7.72
CCOCc1cc(N2CC[C@@H](N)C2)nc(N)n1 [Example 242, (R)-Ethoxymethyl-6-(3-amino-pyrrolidin-1-yl)-pyrimidin-2-ylamine] | 7.66
CCCCc1nc(N)nc(N2CCN(C)CC2)c1OC [Example 108, 4-Butyl-5-methoxy-6-(4-methyl-piperazin-1-yl)-pyrimidin-2-ylamine] | 7.08
CN1CCN(c2cc(CC3CCCO3)nc(N)n2)CC1 (stereo not drawn) [Example 227, 4-(4-Methyl-piperazin-1-yl)-6-(tetrahydro-furan-2-ylmethyl)-pyrimidin-2-ylamine] | 7.77
Nc1nc(C2Cc3ccccc3O2)cc(N2CC(N)C2)n1 (stereo not drawn) [Example 172, 4-(3-Amino-azetidin-1-yl)-6-(2,3-dihydro-benzofuran-2-yl)-pyrimidin-2-ylamine] | 6.03
CC(C)(C)c1cc(N2CC[C@@H](N)C2)nc(N)n1 [Example 127, (R)-4-(3-Amino-pyrrolidin-1-yl)-6-tert-butyl-pyrimidin-2-ylamine] | 8.05
CN(CCN)c1cc(Cc2ccc(Cl)cc2)nc(N)n1 [Example 238, N^4-(2-Amino-ethyl)-6-(4-chloro-benzyl)-N^4-methyl-pyrimidine-2,4-diamine] | 5.75
CC(C)(C)c1cc(N2CC[C@H](N)C2)nc(N)n1 [Example 129, (S)-4-(3-Amino-pyrrolidin-1-yl)-6-tert-butyl-pyrimidin-2-ylamine] | 7.34
CCCc1cc(N2C[C@H]3CN(C)C[C@H]3C2)nc(N)n1 [Example 145, 4-(cis-5-Methyl-hexahydro-pyrrolo[3,4-c]pyrrol-2-yl)-6-propyl-pyrimidin-2-ylamine] | 6.93
